According to patent US11173167B2, “Nutritional intervention for improving muscular function and strength” (Metabolic Technologies, Inc., priority 2008, dated 2021):

What was measured:
[1] = system: Mouse C2C12 skeletal muscle cell myoblasts fused into myotubes; test: Protein degradation and synthesis by leucine isotope release/disappearance in C2C12 myotubes with dexamethasone; format: cell-based; conditions: 24 h, dexamethasone 100 nM
Procedure: Mouse C2C12 skeletal muscle cell myoblasts were grown in culture under standard conditions and fused into myotubes following the methods of Menconi et al. (95). Four separate studies were conducted during different weeks. The first 3 studies consisted of 4 replicate dishes per treatment and the fourth study consisted of 6 replicate dishes per treatment. The treatments were applied to the cells during the 24 h measurement period. Treatments applied were control, 25OH-VitD3 (200 ng/mL), HMB (200 μM HMB as Ca(HMB)2, and the combination of HMB and 25OH-VitD3. Dexamethasone (100 nM) was added to the culture medium during the treatment/measurement period to stimulate protein degradation. Calcium in the form of calcium chloride was added to the control and 25OH-VitD3 treatments so that all the treatments were balanced for calcium. For measurement of protein degradation during the treatment period, leucine free medium was obtained to which [5,5,5]^2H3-leucine was added so that the isotopes of leucine (natural leucine and [1-^13C]-leucine) could be measured as they were released into the medium through the protein degradation process. The measurement medium was sampled at 2 and 24 h and samples stored at −80° C. until analyzed. The samples were analyzed for leucine using a gas chromatography (model 6890, Hewlett Packard, Palo, Calif.) mass spectrometry (model 5973, Hewlett Packard, Palo, Calif.) and the gas chromatography column used for the analysis was a Zebron ZB-5. (Phenomenex, Torrence, Calif.). Natural leucine, [1-^13C]-leucine, and [5,5,5^2H3]-leucine were monitored at 302, 303, and 305 AMU, respectively. Corrections for sampling at 2 h and for leucine utilization from the measurement media were made. […] Concentrations of proteins were analyzed following the microplate assay instructions using a Pierce BCA protein assay kit (Thermo Scientific, Rockford, Ill.). DNA was measured flourometrically using the Quant-iT™ dsDNA assay kit from Invitrogen (Carlsbad, Calif.). […]

[2] = 12-week HMB / Vitamin D study, knee extension strength (BIODEX peak torque); format: in vivo, human; conditions: older adults, 8 weeks
Description: (§1) Prior to the start of the experimental period, we randomly assigned nutritional supplements to each subject using computer-generated random numbers in a double-blind fashion. Treatments were arranged in a 2×2 factorial design with two levels of HMB (0 & 3.0 g/d) and two levels of Vitamin D (0 & 2,000 IU/d). We assigned subjects to one of the following four treatments:
The exercise testing and training session was supervised by trained research associates. Resting heart rate and blood pressure measurements were obtained prior to strength measurements. Enrolled individuals participated in an exercise training program consisting of strength training exercises with Theraband® stretch cords (resistance training) and jumping. The equipment consisted of items that can easily be used at home. Exercise sessions were 3 times a week for 12 weeks. Each exercise session was about 45-60 minutes. […]
Body composition measurements were obtained at 0, 4, 8, and 12 weeks. […] Handgrip strength was measured using a handgrip dynamometer. Peak torque for knee extension and flexion was measured at 60, 90 and 120°/sec. Peak torque for elbow extension and flexion was measured at 60 and 120°/sec.
(§2) Least Squares Mean±SEM were calculated strength and functionality changes in each variable over the 12-week period. […] Statistical significance was determined for p<0.05 and a trend was determined for 0.05<p<0.10.

[3] = 12-week HMB / Vitamin D study, muscular performance index; format: in vivo, human; conditions: eight week performance index, older adults
Description: as §1
Functionality tests included: “Get-up-and-Go” performance (speed and gate), and “Get-up” performance. The “Get-up-and-Go” test consisted of timed measurements of the subject's starting from a seated position, standing, walking forward 3 meters, turning around, walking back to the chair, and sitting down. […] The complete descriptions and standardization of the tests are outlined in the Physical Dimensions of Aging by Waneen W. Spirduso (Human Kinetics, 1995).
A muscular performance index was calculated by summing the percentage change from baseline for Get-up-and-Go, Get-up, handgrip, peak torque for knee extension and flexion (60, 90 and 120°/sec) and peak torque for elbow extension and flexion (60°/sec).
as §2

[4] = 12-week 2x2 HMB / Vitamin D study in older adults with exercise training, serum 25OH-VitD3; format: in vivo, human; conditions: control or HMB alone, no Vitamin D supplement
Description: Elderly women (n=30) and men (n=16) were recruited into a double-blinded controlled study. The older adults were recruited from two locations in South Dakota: Brookings and Sioux Falls. The subjects underwent an initial screening and were randomized to treatments. Testing consisted of an initial (0 weeks) and follow-up testing at 4, 8 and 12 weeks over the course of the 12-week study.
as §1
The treatments were supplied in capsules of equal size and color and contained equal amounts of calcium and phosphorus. The subjects were instructed to take three capsules two times a day. Each subject was supplied with a one-week supply of the supplement, allocated by subject number and returned each week for an additional 1-week supply. […]
as §2

[5] = 12-week HMB / Vitamin D study, urinary HMB concentration (supplement compliance); format: in vivo, human; conditions: clean catch urine sample, HMB 3.0 g/day
Procedure: The average 25OH-VitD3 concentration at wk 0 was 26.5 ng/ml. […] However, subjects either supplemented with a control or HMB alone decreased their serum 25OH-VitD3 level by 2.0 ng/mL. A clean catch urine sample was used to test for supplement compliance.

[6] = after HMB is fed; cited from earlier work
[7] = biological target: T1, 1-alpha, 25-Vitamin D hydroxylase (Homo sapiens, UniProt O15528); conditions: human vascular smooth muscle; cited from earlier work
T1 sequence (O15528 1-508): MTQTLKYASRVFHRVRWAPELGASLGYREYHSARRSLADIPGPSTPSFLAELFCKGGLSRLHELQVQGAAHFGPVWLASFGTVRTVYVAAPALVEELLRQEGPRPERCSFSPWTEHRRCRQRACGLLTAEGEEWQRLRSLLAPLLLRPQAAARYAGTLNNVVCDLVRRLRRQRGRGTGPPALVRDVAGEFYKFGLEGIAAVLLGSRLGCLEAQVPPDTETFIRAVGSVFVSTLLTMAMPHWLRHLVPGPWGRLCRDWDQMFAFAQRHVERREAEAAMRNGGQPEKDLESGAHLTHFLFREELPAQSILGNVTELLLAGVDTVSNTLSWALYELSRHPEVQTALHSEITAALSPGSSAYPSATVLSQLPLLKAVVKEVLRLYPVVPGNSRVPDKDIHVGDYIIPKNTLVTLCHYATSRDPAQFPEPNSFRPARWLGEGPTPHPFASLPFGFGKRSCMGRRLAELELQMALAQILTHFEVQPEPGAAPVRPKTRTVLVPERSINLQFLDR

Compound	dexamethasone stimulated protein degradation [1]	knee extension strength compared to control-treated subjects [2]	increase in the performance index over the control [3]	decrease in protein degradation measured by [1-13C]-leucine ([1]; HMB 200 μM)	decrease in protein degradation measured by natural leucine ([1]; HMB 200 μM)	decrease in serum 25OH-VitD3 level [4]	increase in urinary HMB concentration [5]	loss of HMB to urine [6]	Km [7]
C=C1CC[C@H](O)C/C1=C/C=C1\CCC[C@]2(C)[C@@H]([C@H](C)CCCC(C)C)CC[C@@H]12 [Vitamin D, cholecalciferol]	tended to decrease dexamethasone stimulated protein degradation in only the faster turnover protein pool	Neither the HMB alone nor the Vitamin D-treated subjects increased knee extension strength	58%						
β-hydroxy-β-methylbutyrate [HMB]		Neither the HMB alone nor the Vitamin D-treated subjects increased knee extension strength	35%	6.3%	7.6%	2.0 ng/mL	50 fold	20-50%	
C=C1CC[C@H](O)C/C1=C/C=C1\CCC[C@]2(C)[C@@H]([C@H](C)CCCC(C)(C)O)CC[C@@H]12 [25OH-VitD3]									25 ng/mL
